Consider 11 compounds from article PMC9145846, “Polycyclic Phenol Derivatives from the Leaves of Spermacoce latifolia and Their Antibacterial and α-Glucosidase Inhibitory Activity” (Molecules, 2022).

pIC50: −log10 of the molar value. Converted amounts (≈) assume the structure as drawn. Structures can show the parent of a compound that is named as a salt. Where two headings read alike, the source gives them in different places.

In assay [1] the test system is Bacillus cereus (CMCC63302). Description: Antibacterial assay (resazurin, 96-well doubling dilution), BC. The assay is classed as cell-based. The procedure: (§1) The antibacterial assay was monitored in 96-well plates by using a method as described previously. Briefly, 100 μL indicator solution (resazurin in sterile water, 100 μg/mL) was first placed into each of the sterility control wells (11th column) on the 96-well plates, and the indicator solution (about 7.5 mL, 100 μg/mL) was mixed with test bacteria (5 mL, 10^6 cfu/mL, OD600 = 0.07) followed by transferring (100 μL, each) to growth control wells (12th column) and all test wells (1–10th column). Then, each of 100 μL of test compounds (1 mg/mL) in beef extract peptone medium, along with the positive control solutions (prepared by adding kanamycin sulfate and vancomycin instead of the samples) and the negative control solution (3% DMSO of beef extract peptone medium), were applied to the wells in the 1st column of the plates. Once all samples and controls were properly applied to the 1st column of wells on the plate, half of the homogenized content (100 μL solution) was then parallel-transferred from the 1st column wells to the 2nd column wells, and each subsequent well was treated similarly (doubling dilution) up to the 10th column, followed by discarding the last 100 μL aliquot. Finally, the plates were incubated at 37 °C for 5–6 h until the color of growth control change to pink. The lowest concentration for each test compound at which […] was recorded as the MIC value of the test compound. In the bioassay, Gram-(+) bacterial strains of Staphyloccocus aureus (CMCC26003), methicillin-resistant Staphylococcus aureus (MRSA), Bacillus cereus (CMCC63302), Bacillus subtilis (CMCC63501), and Gram-(−) bacterial strain of Escherichia coli (CMCC44102) were used for the test, and they were all purchased from the Guangdong Institute of Microbiology (Guangzhou, China).
(In general: The colour change of resazurin is a common sign of viable cells or microbes.)

For assay [2], the system named is methicillin-resistant Staphylococcus aureus (MRSA). Description: Antibacterial assay (resazurin, 96-well doubling dilution), MRSA. The class given is cell-based. To be noted: for MIC: MRSA, read-out: MIC, MRSA. The procedure:
as §1

For assay [3], the system named is Bacillus subtilis (CMCC63501). Kind of assay: Antibacterial assay (resazurin, 96-well doubling dilution), BS. The assay is classed as cell-based. The procedure:
as §1

For assay [4], the system named is Staphyloccocus aureus (CMCC26003). Kind of assay: Antibacterial assay (resazurin, 96-well doubling dilution), SA. To be noted: for MIC: read-out: MIC, SA. The class given is cell-based. The procedure:
as §1

Assay [5] concerns Escherichia coli (CMCC44102). Kind of assay: Antibacterial assay (resazurin, 96-well doubling dilution), EC. The assay is classed as cell-based. The procedure:
as §1

The next assay addresses α-glucosidase (Saccharomyces cerevisiae, UniProt P53341). Kind of assay: α-Glucosidase inhibition assay (PNPG substrate). To be noted: read-out: α-Glucosidase inhibitory activity IC50; mean ± SD (n = 3); pH 6.8, PNPG, 37 °C, 15 min.
The mark [6] stands for this setting: CMCC63302, 37 °C, 5–6 h, resazurin colour change, read-out: MIC, BC.
Where [7] appears, read: methicillin-resistant Staphylococcus aureus, 37 °C, 5–6 h, resazurin colour change.
The mark [8] stands for this setting: CMCC63501, 37 °C, 5–6 h, resazurin colour change, read-out: MIC, BS.
Where [9] appears, read: Staphyloccocus aureus, 37 °C, 5–6 h, resazurin colour change.
Where [10] appears, read: CMCC44102, 37 °C, 5–6 h, resazurin colour change, read-out: MIC, EC.
The mark [11] stands for this setting: 37 °C, 5–6 h, resazurin colour change.

Sequence of α-glucosidase (P53341 whole entry): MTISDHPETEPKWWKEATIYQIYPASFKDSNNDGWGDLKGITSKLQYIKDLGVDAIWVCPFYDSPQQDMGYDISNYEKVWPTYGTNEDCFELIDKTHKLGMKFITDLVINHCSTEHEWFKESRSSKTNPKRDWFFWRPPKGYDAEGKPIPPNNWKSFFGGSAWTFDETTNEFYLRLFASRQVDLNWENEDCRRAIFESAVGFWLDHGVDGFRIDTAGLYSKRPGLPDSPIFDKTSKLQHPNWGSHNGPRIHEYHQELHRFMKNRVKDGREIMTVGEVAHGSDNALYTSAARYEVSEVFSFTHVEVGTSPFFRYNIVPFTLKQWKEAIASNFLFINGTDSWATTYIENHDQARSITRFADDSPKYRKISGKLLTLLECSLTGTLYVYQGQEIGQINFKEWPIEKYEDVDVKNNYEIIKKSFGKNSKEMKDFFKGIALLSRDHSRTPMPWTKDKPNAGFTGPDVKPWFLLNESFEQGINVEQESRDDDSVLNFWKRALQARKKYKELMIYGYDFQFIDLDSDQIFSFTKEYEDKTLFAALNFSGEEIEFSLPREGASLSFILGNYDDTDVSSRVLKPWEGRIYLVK
Procedure for α-glucosidase: The a-glucosidase inhibitory activity of the ten isolated compounds was determined in 96-well microtiter plates following the method as described previously [15, 42]. In brief, α-glucosidase (20 μL, 0.5 U/mL) and various concentrations (500, 250, 125, 62.5, 31.2, 15.6, 7.8, 3.9 µg/mL) of tested compounds (120 μL) in 67 mM phosphate buffer (pH 6.8) were mixed in 96-well microtiter plates at room temperature for 10 min. Reactions were initiated by addition of 20 μL of 5.0 mM p-nitrophenyl-α-d-glucopyranoside (PNPG). The reaction mixture was incubated for 15 min at 37 °C in a final volume of 160 μL. Then, 0.2 M Na2CO3 (80 μL) was added to the incubation solution to stop the reaction and the absorbance was determined at 405 nm (for p-nitrophenol). The negative blank was set by adding phosphate buffer instead of test compounds via the same experimental procedure. […] The blank was set by adding phosphate buffer instead of the α-glucosidase using the same method. Inhibition rate (%) = [(ODnegative control − ODblank) − (ODtest − ODtest blank)]/(ODnegative blank − ODblank) × 100%. IC50 values were calculated and expressed as means ± standard deviations (SD) and SPSS 23.0 software was used for the analysis of variances.

A word on the MIC: it is the least concentration at which growth counts as inhibited. For `COc1cc2ccc(=O)oc2c(O)c1O` [Compound 7, 7,8-dihydroxy-6-methoxycoumarin], the MIC in assay [1] (setting [6]), in assay [2] (setting [7]), in assay [3] (setting [8]), in assay [4] (setting [9]) and in assay [5] (setting [10]) was greater than 100 µg/mL throughout.
Turning to `CC(=O)c1cc2c(O)c3oc(=O)ccc3cc2o1` [Compound 1, 2-acetyl-4-hydroxy-6H-furo [2,3-g]chromen-6-one], the MIC in assay [1] (setting [6]) was 31.2 µg/mL (≈ 128 µM); in assay [2] (setting [7]) it was greater than 100 µg/mL; in assay [3] (setting [8]) it was 31.2 µg/mL (≈ 128 µM); in assay [4] (setting [9]), 62.5 µg/mL (≈ 256 µM); in assay [5] (setting [10]) it was greater than 100 µg/mL. Further, in assay [2] (setting [7]), the “MIC, MRSA” value was “inactive”.
Turning to `COc1c(O)cc2c(=O)oc3c(OC)c(O)ccc3c2c1O` [Compound 8, 3,8,10-trihydroxy-4,9-dimethoxy-6H-benzo[c]chromen-6-one], the minimal inhibitory concentration (MIC) in assay [1] (setting [6]) was 31.2 µg/mL (≈ 103 µM); in assay [2] (setting [7]), greater than 100 µg/mL; in assay [3] (setting [8]), 15.6 µg/mL (≈ 51.3 µM); in assay [4] (setting [9]) it was 15.6 µg/mL (≈ 51.3 µM); in assay [5] (setting [10]), greater than 100 µg/mL. The “MIC, MRSA” value in assay [2] (setting [7]) was “inactive”.
Take `COc1c(O)cc2oc3cc4c(c(O)c3c(=O)c2c1CC=C(C)C)C=CC(C)(C)O4` [Compound 4, 5,9-dihydroxy-8-methoxy-2,2-dimethyl-7-(3-methylbut-2-enyl)-2H,6H-pyrano [3,2-b]xanthen-6-one]: the MIC in assay [1] (setting [6]) was 1.95 µg/mL (≈ 4.77 µM); in assay [2] (setting [7]), 1.95 µg/mL (≈ 4.77 µM); in assay [3] (setting [8]) it was 1.95 µg/mL (≈ 4.77 µM); in assay [4] (setting [9]), 1.95 µg/mL (≈ 4.77 µM); in assay [5] (setting [10]) it was greater than 100 µg/mL.
`CN[C@H](CC(C)C)C(=O)N[C@H]1C(=O)N[C@@H](CC(N)=O)C(=O)N[C@H]2C(=O)N[C@H]3C(=O)N[C@H](C(=O)N[C@H](C(=O)O)c4cc(O)cc(O)c4-c4cc3ccc4O)[C@H](O)c3ccc(c(Cl)c3)Oc3cc2cc(c3O[C@@H]2O[C@H](CO)[C@@H](O)[C@H](O)[C@H]2O[C@H]2C[C@](C)(N)[C@H](O)[C@H](C)O2)Oc2ccc(cc2Cl)[C@H]1O` [V, Vancomycin, reference compound]: the MIC in assay [1] (CMCC63302, read-out: MIC, BC) is 1.95 µg/mL (≈ 1.35 µM); in assay [2] (Staphylococcus aureus), 3.9 µg/mL (≈ 2.69 µM); in assay [3] (CMCC63501, read-out: MIC, BS), 1.95 µg/mL (≈ 1.35 µM); in assay [4] it was 1.95 µg/mL (≈ 1.35 µM); in assay [5] (CMCC44102, read-out: MIC, EC), greater than 100 µg/mL.
As for `CC(O)(CO)c1cc2c(O)c3oc(=O)ccc3cc2o1` (stereo not drawn) [Compound 2, 2-(1′,2′-dihydroxypropan-2′-yl)-4-hydroxy-6H-furo [2,3-g][1] benzopyran-6-one], the MIC in assay [1] (setting [6]) was 62.5 µg/mL (≈ 226 µM); in assay [2] (setting [7]), greater than 100 µg/mL; in assay [3] (setting [8]), 62.5 µg/mL (≈ 226 µM); in assay [4] (setting [9]), 62.5 µg/mL (≈ 226 µM); in assay [5] (setting [10]) it was greater than 100 µg/mL. Besides, the “MIC, MRSA” value in assay [2] (setting [7]) was “inactive”.
`COc1cc2oc(=O)ccc2cc1O` [Compound 6, isoscopoletin]: the MIC in assay [1] (setting [6]), in assay [2] (setting [7]), in assay [3] (setting [8]), in assay [4] (setting [9]) and in assay [5] (setting [10]) was greater than 100 µg/mL throughout.
In the case of `O=c1cc(-c2ccc(O)cc2)oc2cc(O)c(O)cc12` [Compound 9, 6,7,4′-trihydroxyflavone], the minimal inhibitory concentration (MIC) in assay [1] (setting [6]), in assay [2] (setting [7]), in assay [3] (setting [8]), in assay [4] (setting [9]) and in assay [5] (setting [10]) was greater than 100 µg/mL each time.
Regarding `O=c1ccc2cc(O)c(O)cc2o1` [Compound 5, esculetin], the MIC in assay [1] (setting [6]) was 31.2 µg/mL (≈ 175 µM); in assay [2] (setting [7]), greater than 100 µg/mL; in assay [3] (setting [8]) it was 7.81 µg/mL (≈ 43.8 µM); in assay [4] (setting [9]) it was 31.2 µg/mL (≈ 175 µM); in assay [5] (setting [10]), greater than 100 µg/mL. Also, in assay [2] (setting [7]), the “MIC, MRSA” value is “inactive”.
One may read the pIC50 as −log10 of the IC50, conventionally taken in molar units. In the case of “6,7,8,4′-tetramethoxyflavone [Compound 10]”, in assay [1] (setting [11]), the “MIC, BC” value is reported as 62.5 µg/mL. Also, the “MIC, MRSA” value in assay [2] (setting [7]) is on record as greater than 100 µg/mL. For the same compound, in assay [3] (setting [11]), the “MIC, BS” value turned out to be 15.6 µg/mL. At α-glucosidase, the pIC50 is less than 3.00. In assay [4] (setting [9]), the “MIC, SA” value was 62.5 µg/mL. The “MIC, EC” value in assay [5] (setting [11]) is on record as greater than 100 µg/mL.
For the compound `NC[C@H]1O[C@H](O[C@H]2[C@H](O)[C@@H](O[C@H]3O[C@H](CO)[C@@H](O)[C@H](N)[C@H]3O)[C@H](N)C[C@@H]2N)[C@H](O)[C@@H](O)[C@@H]1O` [K, Kanamycin sulfate, reference compound], the MIC in assay [1] (setting [6]) is 3.9 µg/mL; in assay [2] (setting [7]) it was greater than 100 µg/mL; in assay [3] (setting [8]) it was 1.95 µg/mL; in assay [4] (setting [9]) it was 1.95 µg/mL; in assay [5] (setting [10]), 1.95 µg/mL.
